# Measured values taken from US20220071970A1, “QUINUCLIDINE-3-ONE DERIVATIVES AND THEIR USE IN CANCER TREATMENT” (Aprea Therapeutics AB, priority 2018, published 2022).
# System: not listed separately
# Test: Stability study in pH 4 buffer at 25° C.
# Assay type: physicochemical
# Conditions: 1st order kinetics
# Procedure: Chemical stability at low pH was investigated for selected compounds. Compounds that are highly unstable may not be suitable as drug candidates, for example due to potential difficulties in achieving and maintaining a stable and therapeutically effective formulation. For instance, compounds intended for oral administration must be chemically stable at the low pH observed in the stomach in order for this to be an acceptable route.
# A pH 4 buffer was prepared by mixing 4.1 mL of 0.2 M acetic acid (aq.) with 0.9 mL of a 0.2 M sodium acetate (aq.) and then diluting to 10 mL with distilled water. The pH was determined by pH meter to 4.04.
# Benzylpiperidine-4-ol was used as internal standard. A 1 mg/mL stock solution was prepared by dissolving 3.5 mg benzylpiperidine-4-ol in 3.5 mL of water. 500 μL of the stock solution were added to pH 4 buffer (5 mL) and the mixture was shaken.
# A 1 mg/mL solution in acetonitrile was prepared for each test compound. Two drops of water were added to ca. 1 mL of acetonitrile in order to completely dissolve Example 2.
# To 400 μL of pH 4 buffer with internal standard were added 100 μL of 1 mg/mL test compound solution. The solutions were stored at 25° C. and analyzed by LCMS directly and at different time points up to 48 hours. The [M+H]^+ ion for parent compound (test compound) and the internal standard (m/z 192) were extracted and integrated. The area for the parent compound was normalized to the area of the internal standard for each time point.
# The half-life was calculated based on 1st order kinetics (t %=ln2/k). The rate constant (k) was obtained by plotting In[normalized peak area] against time.
# Results for half-life and percent parent compound remaining at 48 h for selected examples and a comparative example are shown in Table 5.
row,SMILES,Half-life
1,"O=C1C2CCN(CC2)C1Cn1cc(F)c(=O)[nH]c1=O (stereo not shown) [Comparative example 3, 5-fluoro-1-((3-oxoquinuclidin-2-yl)methyl)pyrimidine-2,4(H,3H)-dione, reference compound]",15 h

# Same assay, conditions: LCMS, normalized to internal standard
row,SMILES,% Parent remaining at 48 h
1,"Cc1cn(CC2C(=O)C3CCN2CC3)c(=O)n(CC2C(=O)C3CCN2CC3)c1=O (stereo not shown) [Example 26, 5-methyl-1,3-bis((3-oxoquinuclidin-2-yl)methyl)-pyrimidine-2,4(1H,3H)-dione]",73%
2,"O=C1C2CCN(CC2)C1Cn1cc(F)c(=O)[nH]c1=O (stereo not shown) [Comparative example 3, 5-fluoro-1-((3-oxoquinuclidin-2-yl)methyl)pyrimidine-2,4(H,3H)-dione, reference compound]",18%
3,"O=C1C2CCN(CC2)C1Cn1ccc(=O)[nH]c1=O (racemic) [Example 23, 1-((3-oxoquinuclidin-2-yl)methyl)pyrimidine-2,4(1H,3H)-dione]",59%
4,"Cc1cn(CC2C(=O)C3CCN2CC3)c(=O)[nH]c1=O (racemic) [Example 24, 5-methyl-1-((3-oxoquinuclidin-2-yl)methyl)pyrimidine-2,4(1H,3H)-dione]",>95%

# Same assay, conditions: pH 4 acetate buffer, 1st order kinetics
row,SMILES,half-life at 0.2 mg/mL
1,"Cc1cn(CC2C(=O)C3CCN2CC3)c(=O)n(CC2C(=O)C3CCN2CC3)c1=O (stereo not shown) [Example 26, 5-methyl-1,3-bis((3-oxoquinuclidin-2-yl)methyl)-pyrimidine-2,4(1H,3H)-dione]",70 h
2,"O=C1C2CCN(CC2)C1Cn1ccc(=O)[nH]c1=O (racemic) [Example 23, 1-((3-oxoquinuclidin-2-yl)methyl)pyrimidine-2,4(1H,3H)-dione]",67 h
3,"Cc1cn(CC2C(=O)C3CCN2CC3)c(=O)[nH]c1=O (racemic) [Example 24, 5-methyl-1-((3-oxoquinuclidin-2-yl)methyl)pyrimidine-2,4(1H,3H)-dione]",> 630 h

# System: SaOS-2 His273 mtp53 human osteosarcoma cell line
# Test: In vitro efficacy study using the SaOS-2 His273 protocol (CellTiter-Glo viability, 72 h)
# Assay type: cell-based
# Conditions: SAOS-2, 72 h, read-out: SaOS-2 His273 IC50
# Procedure: SaOS-2 His273 mtp53 is a human osteosarcoma cell line which has been genetically engineered at OnkPat CCK to express His273 mutated p53.
# 3000 cells/well (50 μl) were seeded into masked (black or white with clear bottom) 96-well cell culture plates using Iscove's Modified Dulbecco's Medium supplemented with 10% heat inactivated (56° C. for 60 min) fetal calf serum. The plates were then incubated for 4 hours, allowing the cells to attach. The test compounds were dissolved in DMSO or water to a concentration of 0.01 M and then further diluted to desired concentrations using the cell medium. 50 μl of freshly diluted test compound from fresh stock was added to the wells. The plates were then incubated for 72 hours.
# For viability detection, CellTiter-Glo® Luminescent Cell Viability Assay (CTG) was used. CTG is a homogeneous “add-mix-measure” format method of determining the number of viable cells in culture based on quantitation of the ATP present, an indicator of metabolically active cells. The luminescence was measured using the PerkinElmer Victorx4 instrument.
# The average of the signal values for the untreated cells was calculated for each plate. The % of growth suppression was calculated as:
# 100−((Signal sample/Signal untreated cells)×100).
# The results of the SaOs-2 His273 analyses were expressed as IC50 values, i.e. concentration that suppresses growth of at least 50% of the cells. The IC50 values of various compounds according to the invention and of some comparative compounds are shown in Table 1, Table 2, Table 3 and Table 4.
row,SMILES,IC50
1,"CNC(=O)c1ncn(CC2C(=O)C3CCN2CC3)n1 (racemic) [Example 27, N-methyl-1-((3-oxoquinuclidin-2-yl)methyl)-1H-1,2,4-triazole-3-carboxamide]",5 µM
2,"O=C(NCC1C(=O)C2CCN1CC2)c1cccnc1 (racemic) [compound 2, N-((3-oxoquinuclidin-2-yl)methyl)nicotinamide, reference compound]",> 40 µM
3,"O=C1C2CCN(CC2)C1Cn1cccn1 (racemic) [compound 4, 2-((1H-pyrazol-1-yl)methyl)quinuclidin-3-one, reference compound]",> 40 µM
4,"CCN(CC1C(=O)C2CCN1CC2)S(C)(=O)=O (racemic) [Example 8, N-ethyl-N-((3-oxoquinuclidin-2-yl)methyl)methane-sulfonamide]",6 µM
5,"CS(=O)(=O)N(CC(N)=O)CC1C(=O)C2CCN1CC2 (racemic) [Example 11, 2-(N-((3-oxoquinuclidin-2-yl)methyl)methylsulfon-amido)acetamide]",4.1 µM
6,"O=C1C2CCN(CC2)C1Cn1cncn1 (racemic) [Example 30, 2-((1H-1,2,4-triazol-1-yl)methyl)quinuclidin-3-one]",26 µM
7,"CCN(CC1C(=O)C2CCN1CC2)S(=O)(=O)C(F)(F)F (racemic) [Example 15, N-ethyl-1,1,1-trifluoro-N-((3-oxoquinuclidin-2-yl)-methyl)methanesulfonamide]",3.5 µM
8,"O=C1C2CCN(CC2)C1CNS(=O)(=O)C1CC1 (racemic) [Example 19, N-((3-oxoquinuclidin-2-yl)methyl)cyclopropane-sulfonamide]",12 µM
9,"O=C1C2CCN(CC2)C1CNC(=O)C(Cl)(Cl)Cl (racemic) [Example 2, 2,2,2-trichloro-N-((3-oxoquinuclidin-2-yl)methyl)acetamide]",6.9 µM
10,"O=C1C2CCN(CC2)C1CNS(=O)(=O)C(F)(F)F (racemic) [Example 16, 1,1,1-trifluoro-N-((3-oxoquinuclidin-2-yl)methyl)methanesulfonamide]",2.9 µM
11,"CS(=O)(=O)N(CC1C(=O)C2CCN1CC2)c1ccccc1 (racemic) [Example 22, N-((3-oxoquinuclidin-2-yl)methyl)-N-phenyl-methanesulfonamide]",1.6 µM
12,"Cc1cn(CC2C(=O)C3CCN2CC3)c(=O)n(C(=O)OC(C)(C)C)c1=O (racemic) [Example 25, tert-butyl 5-methyl-2,6-dioxo-3-((3-oxoquinuclidin-2-yl)methyl)-3,6-dihydropyrimidine-1(2H)-carboxylate]",5.3 µM
13,"CS(=O)(=O)NCC1C(=O)C2CCN1CC2 (racemic) [Example 9, N-((3-oxoquinuclidin-2-yl)methyl)methanesulfon-amide]",8 µM
14,"N#Cc1ncn(CC2C(=O)C3CCN2CC3)n1 (racemic) [Example 31, 1-((3-oxoquinuclidin-2-yl)methyl)-1H-1,2,4-triazole-3-carbonitrile]",2.4 µM
15,"O=C1C2CCN(CC2)C1CNS(=O)(=O)c1cccnc1 (racemic) [Example 6, N-((3-oxoquinuclidin-2-yl)methyl)pyridine-3-sulfonamide]",7.2 µM
16,"O=C1C2CCN(CC2)C1CNS(=O)(=O)c1ccccc1 (racemic) [Example 10, N-((3-oxoquinuclidin-2-yl)methyl)benzenesulfon-amide]",7.1 µM

row,SMILES,IC50
1,"CCN(CC1C(=O)C2CCN1CC2)C(=O)C(Cl)(Cl)Cl (racemic) [Example 1, 2,2,2-trichloro-N-ethyl-N-((3-oxoquinuclidin-2-yl)methyl)acetamide]",3.2 µM
2,"NC(=O)c1ncn(CC2C(=O)C3CCN2CC3)n1 (racemic) [Example 32, 1-((3-oxoquinuclidin-2-yl)methyl)-1H-1,2,4-triazole-3-carboxamide]",10 µM
3,"O=C1C2CCN(CC2)C1CNS(=O)(=O)c1ccccn1 (racemic) [Example 14, N-((3-oxoquinuclidin-2-yl)methyl)pyridine-2-sulfonamide]",6 µM
4,"CS(=O)(=O)N(CC1C(=O)C2CCN1CC2)C1CC1 (racemic) [Example 21, N-cyclopropyl-N-((3-oxoquinuclidin-2-yl)methyl)-methanesulfonamide]",1.8 µM
5,"CC1(S(=O)(=O)NCC2C(=O)C3CCN2CC3)CC1 (racemic) [Example 20, 1-methyl-N-((3-oxoquinuclidin-2-yl)methyl)cyclo-propane-1-sulfonamide]",7.4 µM
6,"O=C1C2CCN(CC2)C1CNS(=O)(=O)c1ccncc1 (racemic) [Example 13, N-((3-oxoquinuclidin-2-yl)methyl)pyridine-4-sulfon-amide]",6.3 µM
7,"CN(C)C(=O)c1ncn(CC2C(=O)C3CCN2CC3)n1 (single isomer, unassigned) [Example 29, N,N-dimethyl-1-((3-oxoquinuclidin-2-yl)methyl)-1H-1,2,4-triazole-3-carboxamide]",8.8 µM
8,"O=C1C2CCN(CC2)C1Cn1cnc(Cl)n1 (racemic) [Example 28, 2-((3-chloro-1H-1,2,4-triazol-1-yl)methyl)quinuclidin-3-one]",3.1 µM
9,"CC(=O)NCC1C(=O)C2CCN1CC2 (racemic) [compound 1, N-((3-oxoquinuclidin-2-yl)methyl)acetamide, reference compound]",> 40 µM
10,"O=C1C2CCN(CC2)C1Cc1cnn[nH]1 (racemic) [Comparative example 5, 2-((1H-1,2,3-triazol-5-yl)methyl)quinuclidin-3-one, reference compound]",> 40 µM
11,"CS(=O)(=O)N(CC1C(=O)C2CCN1CC2)CC1C(=O)C2CCN1CC2 (stereo not shown) [Example 17, N,N-bis((3-oxoquinuclidin-2-yl)methyl)methanesulfonamide]",2.9 µM
12,"CC(C)S(=O)(=O)NCC1C(=O)C2CCN1CC2 (racemic) [Example 18, N-((3-oxoquinuclidin-2-yl)methyl)propane-2-sulfonamide]",11 µM
13,"O=C(NCC1C(=O)C2CCN1CC2)C(F)F (racemic) [Example 5, 2,2-difluoro-N-((3-oxoquinuclidin-2-yl)methyl)acetamide]",13 µM
14,"CCN(CC1C(=O)C2CCN1CC2)C(=O)C(F)(F)F (racemic) [Example 3, N-ethyl-2,2,2-trifluoro-N-((3-oxoquinuclidin-2-yl)methyl)acetamide]",4.2 µM
15,"O=C1C2CCN(CC2)C1CNS(=O)(=O)c1ccc(F)cc1 (racemic) [Example 7, 4-fluoro-N-((3-oxoquinuclidin-2-yl)methyl)benzenesulfonamide]",7.2 µM
16,"CS(=O)(=O)N(CC(=O)O)CC1C(=O)C2CCN1CC2 (racemic) [Example 12, N-(methylsulfonyl)-N-((3-oxoquinuclidin-2-yl)-methyl)qlycine]",6 µM

# Same assay, conditions: SAOS-2, growth suppression, 72 hours incubation, CellTiter-Glo, read-out: SaOS-2 His273 IC50
row,SMILES,IC50
1,"Cc1cn(CC2C(=O)C3CCN2CC3)c(=O)n(CC2C(=O)C3CCN2CC3)c1=O (stereo not shown) [Example 26, 5-methyl-1,3-bis((3-oxoquinuclidin-2-yl)methyl)-pyrimidine-2,4(1H,3H)-dione]",4 µM
2,"O=C1C2CCN(CC2)C1Cn1ccc(=O)[nH]c1=O (racemic) [Example 23, 1-((3-oxoquinuclidin-2-yl)methyl)pyrimidine-2,4(1H,3H)-dione]",3.2 µM
3,"Cc1cn(CC2C(=O)C3CCN2CC3)c(=O)[nH]c1=O (racemic) [Example 24, 5-methyl-1-((3-oxoquinuclidin-2-yl)methyl)pyrimidine-2,4(1H,3H)-dione]",6.5 µM
